These results are taken from patent US10508104B2, “6-hydroxy-5-(phenyl/heteroarylsulfonyl)pyrimidin-4(1H)-one as APJ agonists” (Bristol-Myers Squibb Company, priority 2016, dated 2019).

The target in the assay is human APJ receptor (Homo sapiens (Human), UniProt P35414). Briefly: Intracellular cAMP accumulation assay (APJ hcAMP, HTRF). The class given is cell-based. As to conditions: human APJ, cAMP accumulation; read-out: Human APJ cAMP EC50 Potency range. The procedure, abridged: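 HEK293 cells stably expressing human APJ, 5,000 per well, incubated 30 min at rt with compound, […] and 2 μM forskolin. cAMP measured by HTRF against a cAMP standard curve as inhibition of forskolin-driven production. EC50 from variable-slope sigmoidal fit.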
Sequence of human APJ receptor (P35414 whole entry): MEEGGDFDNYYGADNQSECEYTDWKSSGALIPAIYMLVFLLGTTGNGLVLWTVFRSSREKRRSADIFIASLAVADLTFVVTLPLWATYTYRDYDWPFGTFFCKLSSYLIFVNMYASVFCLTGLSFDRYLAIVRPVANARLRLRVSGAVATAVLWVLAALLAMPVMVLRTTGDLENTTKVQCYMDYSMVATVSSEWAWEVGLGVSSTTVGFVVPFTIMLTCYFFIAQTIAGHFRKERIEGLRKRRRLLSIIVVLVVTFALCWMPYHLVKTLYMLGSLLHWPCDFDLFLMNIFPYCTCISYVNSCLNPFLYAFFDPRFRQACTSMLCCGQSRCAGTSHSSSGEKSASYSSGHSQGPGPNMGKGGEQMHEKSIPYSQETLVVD

In general, EC50 refers to the midpoint of the concentration-response curve. As to `CCOCc1nc(=O)c(S(=O)(=O)c2ccc(Br)c(F)c2)c(O)n1[C@@H](COC)c1cccc(C#N)c1` [Example 301, 3-[(1R)-1-[5-(4-bromo-3-fluorobenzenesulfonyl)-2-(ethoxymethyl)-6-hydroxy-4-oxo-1,4-dihydropyrimidin-1-yl]-2-methoxyethyl] benzonitrile], the EC50 lay within 0.01 to 10 nM.

Turning to `CCCCc1nc(=O)c(S(=O)(=O)c2ccc(Br)cc2)c(O)n1[C@@H](CC)c1cccc(C#N)c1` [Example 302, 3-[(1S)-1-[5-(4-bromobenzenesulfonyl)-2-butyl-4-hydroxy-6-oxo-1,6-dihydropyrimidin-1-yl]propyl]benzonitrile], the EC50 fell in the range of 0.01 to 10 nM.

As to `CCOCc1nc(=O)c(S(=O)(=O)c2ccc(C3CC3)cc2)c(O)n1[C@H]1CCc2ccccc21` [Example 303, 5-(4-cyclopropylbenzene-sulfonyl)-1-[(1S)-2,3-dihydro-1H-inden-1-yl]-2-(ethoxymethyl)-6-hydroxy-1,4-dihydropyrimidin-4-one], the EC50 was 0.01 to 10 nM.

For the compound `COC[C@@H](c1ccccc1)n1c(COC(C)C)nc(=O)c(S(=O)(=O)c2ccc(-c3ccc(F)nc3C)c(F)c2)c1O` [Example 304, 5-[3-fluoro-4-(6-fluoro-2-methylpyridin-3-yl)benzenesulfonyl]-6-hydroxy-1-[(1R)-2-methoxy-1-phenylethyl]-2-[(propan-2-yloxy)methyl]-1,4-dihydropyrimidin-4-one], the EC50 was 0.01 to 10 nM.

In the case of `CCOCc1nc(=O)c(S(=O)(=O)c2ccc(-c3ccc(F)nc3)cc2)c(O)n1[C@@H](CC)c1ccccc1` [Example 305, 2-(ethoxymethyl)-5-[4-(6-fluoropyridin-3-yl)benzenesulfonyl]-6-hydroxy-1-[(1S)-1-phenylpropyl]-1,4-dihydropyrimidin-4-one], the EC50 was 0.01 to 10 nM.

For `CCOCc1nc(=O)c(S(=O)(=O)c2ccc(-c3ccncc3C)cc2)c(O)n1[C@@H](CC)c1ccccc1` [Example 306, 2-(ethoxymethyl)-6-hydroxy-5-[4-(3-methylpyridin-4-yl)benzenesulfonyl]-1-[(1S)-1-phenylpropyl]-1,4-dihydropyrimidin-4-one], the EC50 was 0.01 to 10 nM.

In the case of `CCOCc1nc(=O)c(S(=O)(=O)c2ccc(-c3ccnc(F)c3C)cc2)c(O)n1[C@@H](CC)c1ccccc1` [Example 307, 2-(ethoxymethyl)-5-[4-(2-fluoro-3-methylpyridin-4-yl)benzenesulfonyl]-6-hydroxy-1-[(1S)-1-phenylpropyl]-1,4-dihydropyrimidin-4-one], the EC50 was in the range of 0.01 to 10 nM.

Take `CCOCc1nc(=O)c(S(=O)(=O)c2ccc(-c3ccc(F)nc3C)cc2)c(O)n1[C@@H](CC)c1ccccc1` [Example 308, 2-(ethoxymethyl)-5-[4-(6-fluoro-2-methylpyridin-3-yl)benzenesulfonyl]-6-hydroxy-1-[(1S)-1-phenylpropyl]-1,4-dihydropyrimidin-4-one]: the EC50 was in the range of 0.01 to 10 nM.

On to `CCOCc1nc(=O)c(S(=O)(=O)c2ccc(-c3ccc(OC)nc3C)cc2)c(O)n1[C@@H](CC)c1ccccc1` [Example 309, 2-(ethoxymethyl)-6-hydroxy-5-[4-(6-methoxy-2-methylpyridin-3-yl)benzenesulfonyl]-1-[(1S)-1-phenylpropyl]-1,4-dihydropyrimidin-4-one], for which the EC50 was 0.01 to 10 nM.

For `CCOCc1nc(=O)c(S(=O)(=O)c2ccc(-c3cccnc3C)cc2)c(O)n1[C@@H](CC)c1ccccc1` [Example 310, 2-(ethoxymethyl)-6-hydroxy-5-[4-(2-methylpyridin-3-yl)benzenesulfonyl]-1-[(1S)-1-phenylpropyl]-1,4-dihydropyrimidin-4-one], the EC50 lay within 0.01 to 10 nM.

For `CC[C@@H](c1ccccc1)n1c(COC(C)C)nc(=O)c(S(=O)(=O)c2ccc(-c3ccc(F)nc3C)cc2)c1O` [Example 311, 5-[4-(6-fluoro-2-methylpyridin-3-yl)benzenesulfonyl]-6-hydroxy-1-[(1S)-1-phenylpropyl]-2-[(propan-2-yloxy)methyl]-1,4-dihydropyrimidin-4-one], the EC50 was in the range of 0.01 to 10 nM.

As to `CC[C@@H](c1ccccc1)n1c(COC(C)C)nc(=O)c(S(=O)(=O)c2ccc(-c3ccnc(F)c3C)cc2)c1O` [Example 312, 5-[4-(2-fluoro-3-methylpyridin-4-yl)benzenesulfonyl]-6-hydroxy-1-[(1S)-1-phenylpropyl]-2-[(propan-2-yloxy)methyl]-1,4-dihydropyrimidin-4-one], the EC50 was in the range of 0.01 to 10 nM.

Consider `CC[C@@H](c1ccccc1)n1c(COC(C)C)nc(=O)c(S(=O)(=O)c2ccc(-c3cccnc3C)cc2)c1O` [Example 313, 6-hydroxy-5-[4-(2-methylpyridin-3-yl)benzenesulfonyl]-1-[(1S)-1-phenylpropyl]-2-[(propan-2-yloxy)methyl]-1,4-dihydropyrimidin-4-one], for which the EC50 was 0.01 to 10 nM.

For the compound `CC[C@@H](c1ccccc1)n1c(COC(C)C)nc(=O)c(S(=O)(=O)c2ccc(-c3ccncc3C)cc2)c1O` [Example 314, 6-hydroxy-5-[4-(3-methylpyridin-4-yl)benzenesulfonyl]-1-[(1S)-1-phenylpropyl]-2-[(propan-2-yloxy)methyl]-1,4-dihydropyrimidin-4-one], the EC50 was in the range of 0.01 to 10 nM.

Regarding `CCOCc1nc(=O)c(S(=O)(=O)c2ccc(-c3ccncc3C)cc2)c(O)n1[C@@H](COC)c1ccccc1` [Example 315, 2-(ethoxymethyl)-6-hydroxy-1-[(1R)-2-methoxy-1-phenylethyl]-5-[4-(3-methylpyridin-4-yl)benzenesulfonyl]-1,4-dihydropyrimidin-4-one], the EC50 lay in the range of 0.01 to 10 nM.

Turning to `CCOCc1nc(=O)c(S(=O)(=O)c2ccc(-c3ccnc(F)c3C)cc2)c(O)n1[C@@H](COC)c1ccccc1` [Example 316, 2-(ethoxymethyl)-5-[4-(2-fluoro-3-methylpyridin-4-yl)benzenesulfonyl]-6-hydroxy-1-[(1R)-2-methoxy-1-phenylethyl]-1,4-dihydropyrimidin-4-one], the EC50 lay in the range of 0.01 to 10 nM.

For `CCOCc1nc(=O)c(S(=O)(=O)c2ccc(-c3ccc(F)nc3)cc2)c(O)n1[C@@H](COC)c1ccccc1` [Example 317, 2-(ethoxymethyl)-5-[4 (6-fluoropyridin-3-yl)benzenesulfonyl]-6-hydroxy-1-[(1R)-2-methoxy-1-phenylethyl]-1,4-dihydropyrimidin-4-one], the EC50 was in the range of 10 to 100 nM.

In the case of `CCOCc1nc(=O)c(S(=O)(=O)c2ccc(-c3ccc(F)nc3C)cc2)c(O)n1[C@@H](COC)c1ccccc1` [Example 318, 2-(ethoxymethyl)-5-[4-(6-fluoro-2-methylpyridin-3-yl)benzenesulfonyl]-6-hydroxy-1-[(1R)-2-methoxy-1-phenylethyl]-1,4-dihydropyrimidin-4-one], the EC50 was 0.01 to 10 nM.

As for `CCOCc1nc(=O)c(S(=O)(=O)c2ccc(-c3cccnc3C)cc2)c(O)n1[C@H]1CCc2ccccc21` [Example 319, 1-[(1S)-2,3-dihydro-1H-inden-1-yl]-2-(ethoxymethyl)-6-hydroxy-5-[4-(2-methylpyridin-3-yl)benzenesulfonyl]-1,4-dihydropyrimidin-4-one], the EC50 is 0.01 to 10 nM.

Take `Cc1nc(F)ccc1-c1ccc(S(=O)(=O)c2c(O)n([C@H]3CCc4ccccc43)c(COC(C)C)nc2=O)cc1` [Example 320, 1-[(1S)-2,3-dihydro-1H-inden-1-yl]-5-[4-(6-fluoro-2-methylpyridin-3-yl)benzenesulfonyl]-6-hydroxy-2-[(propan-2-yloxy)methyl]-1,4-dihydropyrimidin-4-one]: the EC50 lay in the range of 0.01 to 10 nM.

`COC[C@@H](c1ccccc1)n1c(COC(C)C)nc(=O)c(S(=O)(=O)c2ccc(-c3ccc(F)nc3C)cc2)c1O` [Example 321, 5-[4-(6-fluoro-2-methylpyridin-3-yl)benzenesulfonyl]-6-hydroxy-1-[(1R)-2-methoxy-1-phenylethyl]-2-[(propan-2-yloxy)methyl]-1,4-dihydropyrimidin-4-one]: the EC50 is 0.01 to 10 nM.

Regarding `CCOCc1nc(=O)c(S(=O)(=O)c2ccc(-c3cncc(F)c3)cc2)c(O)n1[C@H]1CCc2ccccc21` [Example 322, 1-[(1S)-2,3-dihydro-1H-inden-1-yl]-2-(ethoxymethyl)-5-[4-(5-fluoropyridin-3-yl)benzenesulfonyl]-6-hydroxy-1,4-dihydropyrimidin-4-one], the EC50 fell in the range of 0.01 to 10 nM.

With `CCOCc1nc(=O)c(S(=O)(=O)c2ccc(-c3ccncc3C)cc2)c(O)n1[C@H]1CCc2ccccc21` [Example 323, 1-[(1S)-2,3-dihydro-1H-inden-1-yl]-2-(ethoxymethyl)-6-hydroxy-5-[4-(3-methylpyridin-4-yl)benzenesulfonyl]-1,4-dihydropyrimidin-4-one], the EC50 was in the range of 0.01 to 10 nM.

As to `CCOCc1nc(=O)c(S(=O)(=O)c2ccc(-c3ccnc(F)c3C)cc2)c(O)n1[C@H]1CCc2ccccc21` [Example 324, 1-[(1S)-2,3-dihydro-1H-inden-1-yl]-2-(ethoxymethyl)-5-[4-(2-fluoro-3-methylpyridin-4-yl)benzenesulfonyl]-6-hydroxy-1,4-dihydropyrimidin-4-one], the EC50 lay within 0.01 to 10 nM.

In the case of `CCOCc1nc(=O)c(S(=O)(=O)c2ccc(-c3ccc(F)nc3)cc2)c(O)n1[C@H]1CCc2ccccc21` [Example 325, 1-[(1S)-2,3-dihydro-1H-inden-1-yl]-2-(ethoxymethyl)-5-[4-(6-fluoropyridin-3-yl)benzenesulfonyl]-6-hydroxy-1,4-dihydropyrimidin-4-one], the EC50 lay in the range of 0.01 to 10 nM.

On to `CCOCc1nc(=O)c(S(=O)(=O)c2ccc(-c3ccc(F)nc3C)cc2)c(O)n1[C@H]1CCc2ccccc21` [Example 326, 1-[(1S)-2,3-dihydro-1H-inden-1-yl]-2-(ethoxymethyl)-5-[4-(6-fluoro-2-methylpyridin-3-yl)benzenesulfonyl]-6-hydroxy-1,4-dihydropyrimidin-4-one], for which the half-maximal effective concentration (EC50) lay in the range of 0.01 to 10 nM.

For `COC[C@@H](c1ccccc1)n1c(COC(C)C)nc(=O)c(S(=O)(=O)c2ccc(-c3ccnc(F)c3C)cc2)c1O` [Example 327, 5-[4-(2-fluoro-3-methylpyridin-4-yl)benzenesulfonyl]-6-hydroxy-1-[(1R)-2-methoxy-1-phenylethyl]-2-[(propan-2-yloxy)methyl]-1,4-dihydropyrimidin-4-one], the EC50 fell in the range of 0.01 to 10 nM.
